# Key:
# [1] = test system: Caspase1, GSDMD and IL1 in irradiated skin cells; test: Western blot of pyroptosis pathway proteins in irradiated skin cells; assay type: cell-based; conditions: 10 μM for 24 h before irradiation, 20 Gy X-ray once
# Description: To determine the mechanism of the inhibitory effect of IRF1 inhibitor IRSKIN-1 on inflammatory death in the irradiated skin cells, cells were treated with 10 μM IRSKIN-1 or equivalent DMSO for 24 h before irradiation, respectively; subsequently, the cells were irradiated with 20 Gy X-ray once, and changes in key proteins of cell pyroptosis pathway, Caspase1 and GSDMD, and inflammatory factor IL1 were detected by Western blot, so as to determine the inhibitory effect of IRSKIN-1 on inflammatory death in the irradiated skin cells and its mechanism.
# irradiated skin cells [2] = test: mortality of irradiated skin cells by AV/PI staining; assay type: cell-based; conditions: 10 μM for 24 h before irradiation; 20 Gy X-ray once; 3 days after irradiation; vs DMSO, P<0.01
# Description: To determine whether IRSKIN-1 reduces the mortality of irradiated skin cells, cells were treated with 10 μM IRSKIN-1 or equivalent DMSO for 24 h before irradiation, respectively; subsequently, the cells were irradiated with 20 Gy X-ray once, and the effect of IRSKIN-1 on irradiated cell proliferation ability was evaluated by AV/PI staining method 3 days after irradiation.
# [3] = test system: radiation-induced skin injury in C57 BL/6J mice; test: radiation-induced skin injury mouse model, subcutaneous injection; assay type: in vivo; conditions: 1 and 3 days before irradiation
# Description: (§1) Male C57 BL/6J mice aged 6-8 weeks were purchased from GemPharmatech Co., Ltd. The mice were acclimatized and randomized into two groups (6 mice per group); the mice were subcutaneously injected with IRSKIN-1 (which was dissolved in DMSO to prepare a 50 mM solution, 100 μL/time) and equivalent DMSO once 1 and 3 days before irradiation, respectively; based on 1% of the body weight of each mouse, the mouse was anesthetized by intraperitoneal injection of 1% chloral hydrate, the skin of hind limbs of the mouse was depilated, and the mouse was immobilized on a board to reduce accidental movements during irradiation.
# (§2) The skin of limbs of mice was irradiated with 6 MeV electron ray generated by Varian 23EX Linear Accelerator (Varian, the USA); the surface was covered with a 1 cm thick bolus, and non-irradiated sites were shielded with a lead plate; the irradiation area was approximately 30×40 mm, the absorbed dose rate was 750 cGy/min, and the total dose was 45 Gy; and the range of the irradiated area was outlined with a marker pen during irradiation.
# [4] = test system: inflammatory factors in irradiated skin tissue; test: inflammation microarray of irradiated skin tissue of treated mice; assay type: in vivo, mouse; conditions: s.c. treatment, FIG. 10
# Description: as §1, §2
# irradiated skin cells [5] = test: colony formation test of irradiated skin cells; assay type: cell-based; conditions: 10 μM for 24 h before irradiation; X-ray 2 Gy once or twice or Sr 90 4 Gy once; vs DMSO, P<0.01
# Description: To determine the promoting effect of IRF1 inhibitor IRSKIN-1 on irradiated skin cell proliferation, cells were treated with 10 μM IRSKIN-1 or equivalent DMSO for 24 h before irradiation, respectively; subsequently, the cells were subjected to fractionated irradiation at 2 Gy once or at 2 Gy twice or Sr 90 irradiation at 4 Gy once, respectively; subsequently, the effect of IRSKIN-1 on irradiated cell proliferation ability was evaluated by the colony formation test (2,500 cells were spread on each well of a 6-well plate).
# mouse primary skin cells = test: senescence of irradiated primary skin cells by β-galactosidase staining; assay type: cell-based; conditions: 10 μM for 24 h before irradiation; 20 Gy X-ray once; 3 days after irradiation; vs DMSO, P<0.01
# Description: To determine whether IRSKIN-1 reduces the senescence rate of irradiated skin cells, mouse primary skin cell were isolated and cultured, cells were treated with 10 μM IRSKIN-1 or equivalent DMSO for 24 h before irradiation, respectively; subsequently, the cells were irradiated with 20 Gy X-ray once, and the effect of IRSKIN-1 on irradiated primary cell senescence was evaluated by β-galactosidase staining method 3 days after irradiation.
# IRF1 = biological target: T1, IRF1 (Homo sapiens, UniProt P10914); test: IRF1 transcriptional activity, dual-luciferase reporter system in irradiated HaCaT cells; assay type: cell-based; conditions: 10 μM 24 h before irradiation, X-ray 20 Gy, detection 1 h after irradiation, P<0.01
# T1 construct: Human skin keratinocytes (HaCaT cells) were infected in vitro according to a titer of 100 MOI; endogenous in cells; host or cells: HaCaT human skin keratinocytes infected with an h-IRF1 promoter-rluc reporter adenovirus
# T1 sequence (P10914 1-325): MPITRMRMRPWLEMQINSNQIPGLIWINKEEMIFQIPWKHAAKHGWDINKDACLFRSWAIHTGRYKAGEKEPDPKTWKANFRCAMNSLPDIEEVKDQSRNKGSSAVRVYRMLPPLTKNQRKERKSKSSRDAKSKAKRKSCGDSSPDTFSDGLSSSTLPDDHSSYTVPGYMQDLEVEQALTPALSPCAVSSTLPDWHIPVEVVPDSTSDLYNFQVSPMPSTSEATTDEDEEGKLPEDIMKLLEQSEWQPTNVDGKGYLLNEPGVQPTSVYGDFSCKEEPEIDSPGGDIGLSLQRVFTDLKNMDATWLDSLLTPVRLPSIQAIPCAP
# Text: To determine the inhibitory effect of the compound (IRSKIN-1) on the transcriptional activity of IRF1, Hanbio Biotechnology (Shanghai) Co., Ltd. was entrusted to construct an h-IRF1 promoter-rluc adenovirus vector. The vector has four binding sites of IRF1, and the downstream of the promoter is a luciferase reporter gene. The virus was constructed based on a dual-luciferase reporter system, and the transcriptional activity of IRF1 could be directly reflected by the luciferase activity. Human skin keratinocytes (HaCaT cells) were infected in vitro according to a titer of 100 MOI, and the virus infection efficiency met the experimental requirement 48 h after infection.
# A microplate reader PROMEGA and the corresponding substrates were used for detection 1 h after irradiation.
# [6] = s.c. 50 mM in DMSO 100 μL/time, 45 Gy electron ray
compound,measurement,setting,value
"O=C(CCn1cnc2ccccc2c1=O)Nc1ccc(S(=O)(=O)N2CCCCC2)cc1 [IRSKIN-1, 3-(4-oxo-3 (4H)-quinazolinyl)-N-[4-(1-piperidinylsulfonyl)phenyl]propanamide]",hydrolysis of Caspase1,[1],inhibit the hydrolysis
same,hydrolysis of GSDMD,[1],inhibit the hydrolysis
same,hydrolysis of IL1,[1],inhibit the hydrolysis
same,cell mortality after X-ray irradiation (AV/PI staining),irradiated skin cells [2],reduce cell mortality
same,wet ulcers of the skin,"[3]; s.c. 50 mM 100 μL/time, 45 Gy, FIG. 8, 15 and 30 days after irradiation",wet ulcers appeared in only fewer areas
same,progression scores of radiation-induced skin injury,"[3]; s.c. 50 mM 100 μL/time, 45 Gy, FIG. 9",reducing progression scores
same,progression of radiation-induced skin injury vs DMSO group,[3]; [6],slower
same,ulcer wound area vs DMSO group,[3]; [6],smaller ulcer wound area
same,expression of BLC in skin tissue,[4],downregulated
same,expression of G-CSF in skin tissue,[4],upregulated
same,expression of MIP-1a in skin tissue,[4],upregulated
same,expression of TNF-R II in skin tissue,[4],upregulated
same,clone formation ability of irradiated skin cells,irradiated skin cells [5],significantly improve
same,β-galactosidase positive rate (senescence) of mouse primary cells,mouse primary skin cells,reduce the β-galactosidase positive rate
same,irradiated IRF1 transcriptional activity (luciferase activity) vs DMSO-treated irradiation group,IRF1,significantly lower

# From US12414951B2, “Use of compound in preparation of medicament for prophylaxis and treatment of inflammatory tissue damage” (Sichuan University, priority 2022, dated 2025)
